In ChEMBL document CHEMBL3046239, “Lethal and Antifeedant Substance from Rhizome of Alpinia galanga SW. (Zingiberaceae)” (1998):

Legend:
Assay type in all cases: functional
[1] = tested on: Callosobruchus chinensis; experiment: Lethal effect on Callosobruchus chinensis assessed as mortality measured per insect after 24 hr treatment by topical application method
[2] = tested on: Plutella xylostella; experiment: Antifeedant effect in Plutella xylostella (diamondback moth) in compound treated fresh cabbage leaves assessed as feeding reduction at 106.2 ug/cm'2 by no-choice leaf disk method
[3] = tested on: Plutella xylostella; experiment: Lethal effect on Plutella xylostella (diamondback moth) in fresh cabbage leaves assessed as mortality at 10 ug/insect measured 24 hr after treatment by topical application method
[4] = tested on: Plutella xylostella; experiment: Lethal effect on Plutella xylostella (diamondback moth) in fresh cabbage leaves assessed as mortality measured per insect after 48 hr treatment by topical application method
[5] = tested on: Callosobruchus chinensis; experiment: Lethal effect on Callosobruchus chinensis assessed as mortality at 8 ug/insect measured 24 hr after treatment by topical application method
[6] = tested on: Plutella xylostella; experiment: Antifeedant effect in Plutella xylostella (diamondback moth) in compound treated fresh cabbage leaves assessed as feeding reduction at 66.4 ug/cm'2 by no-choice leaf disk method
[7] = tested on: Plutella xylostella; experiment: Lethal effect on Plutella xylostella (diamondback moth) in fresh cabbage leaves assessed as mortality at 8 to 10 ug/insect measured 48 hr after treatment by topical application method

C=C[C@H](OC(C)=O)c1ccc(OC(C)=O)cc1 [1'-ACETOXYCHAVICOL ACETATE] showed an LD50 [1] of 3 µg, an AFI [2] of 98.8% and a mortality [3] of 83.3%. The LD50 [4] was 4.5 µg, the mortality [5] was 95% and the AFI [6] was 88.5%. For the same compound, the mortality [7] was 100%.
